Test results from the supplement of paper PMC10307832.

Assays:
Assay in all cases: relative viability (nuclei count vs DMSO), 5 days (fraction); higher = more cells survive
NCI-H2087 = system: NCI-H2087
In short: (§1)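 Relative viability is defined as nuclei in treated wells over nuclei in vehicle wells. Duplicate plates were run and medians reported. Lung cancer cell lines in 1536-well plates were dosed by pin tool one day after seeding, with one drug or with a fixed anchor-drug dose plus five library-drug doses (not always all listed) in √10 steps, and nuclei were counted after 5 days.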

RERF-LC-KJ = system: RERF-LC-KJ
In short: as §1

NCI-H520 = system: NCI-H520
In short: as §1

NCI-H2126 = system: NCI-H2126
In short: as §1

H3255 = system: H3255
In short: as §1

NCI-H650 = system: NCI-H650
In short: as §1

NCI-H661 = system: NCI-H661
In short: as §1

LC-2-ad = system: LC-2-ad
In short: as §1

EPLC-272H = system: EPLC-272H
In short: as §1

NCI-H23 = system: NCI-H23
In short: as §1

HCC-78 = system: HCC-78
In short: as §1

NCI-H1915 = system: NCI-H1915
In short: as §1

NCI-H2405 = system: NCI-H2405
In short: as §1

HCC-827 = system: HCC-827
In short: as §1

201T = system: 201T
In short: as §1

COR-L 105 = system: COR-L 105
In short: as §1

NCI-H1666 = system: NCI-H1666
In short: as §1

PC-14 = system: PC-14
In short: as §1

NCI-H647 = system: NCI-H647
In short: as §1

ChaGo-K-1 = system: ChaGo-K-1
In short: as §1

NCI-H2347 = system: NCI-H2347
In short: as §1

LCLC-97TM1 = system: LCLC-97TM1
In short: as §1

`O=c1cc(-c2cccc3c2Sc2ccccc2S3)oc(N2CCOCC2)c1` + Cc1nc(Nc2ncc(C(=O)Nc3c(C)cccc3Cl)s2)cc(N2CCN(CCO)CC2)n1 [Dasatinib] (partner 0.075 µM) gave a relative viability (NCI-H2087; first compound 0.08 µM) of 0.787, a relative viability (NCI-H2087; first compound 0.253 µM) of 0.936 and a relative viability (NCI-H2087; first compound 0.8 µM) of 0.943. For the same compound, the relative viability (NCI-H2087; first compound 2.53 µM) was 0.919, the relative viability (NCI-H2087; first compound 8 µM) was 0.699 and the relative viability (RERF-LC-KJ; first compound 0.08 µM) was 0.685. For the same compound, the relative viability (RERF-LC-KJ; first compound 0.253 µM) was 0.975, the relative viability (RERF-LC-KJ; first compound 0.8 µM) was 0.918 and the relative viability (RERF-LC-KJ; first compound 2.53 µM) was 0.758. For the same compound, the relative viability (RERF-LC-KJ; first compound 8 µM) was 0.74, the relative viability (NCI-H520; first compound 0.08 µM) was 0.181 and the relative viability (NCI-H520; first compound 0.253 µM) was 0.258. The relative viability (NCI-H520; first compound 0.8 µM) was 0.194, the relative viability (NCI-H520; first compound 2.53 µM) was 0.172 and the relative viability (NCI-H520; first compound 8 µM) was 0.213. It also gave a relative viability (NCI-H2126; first compound 0.08 µM) of 0.59, a relative viability (NCI-H2126; first compound 0.253 µM) of 0.456 and a relative viability (NCI-H2126; first compound 0.8 µM) of 0.43. It also gave a relative viability (NCI-H2126; first compound 2.53 µM) of 0.534, a relative viability (NCI-H2126; first compound 8 µM) of 0.495 and a relative viability (H3255; first compound 0.08 µM) of 0.334. The relative viability (H3255; first compound 0.253 µM) was 0.288, the relative viability (H3255; first compound 0.8 µM) was 0.363 and the relative viability (H3255; first compound 2.53 µM) was 0.342. The relative viability (H3255; first compound 8 µM) was 0.556, the relative viability (NCI-H650; first compound 0.08 µM) was 0.4 and the relative viability (NCI-H650; first compound 0.253 µM) was 0.412. It also gave a relative viability (NCI-H650; first compound 0.8 µM) of 0.506, a relative viability (NCI-H650; first compound 8 µM) of 0.488 and a relative viability (NCI-H661; first compound 0.08 µM) of 0.779. The relative viability (NCI-H661; first compound 0.253 µM) was 0.938, the relative viability (NCI-H661; first compound 0.8 µM) was 0.761 and the relative viability (NCI-H661; first compound 2.53 µM) was 0.729. It also gave a relative viability (NCI-H661; first compound 8 µM) of 0.874, a relative viability (LC-2-ad; first compound 0.08 µM) of 0.648 and a relative viability (LC-2-ad; first compound 0.253 µM) of 0.584. For the same compound, the relative viability (LC-2-ad; first compound 0.8 µM) was 0.532, the relative viability (LC-2-ad; first compound 2.53 µM) was 0.405 and the relative viability (LC-2-ad; first compound 8 µM) was 0.461. For the same compound, the relative viability (EPLC-272H; first compound 0.08 µM) was 0.331, the relative viability (EPLC-272H; first compound 0.253 µM) was 0.397 and the relative viability (EPLC-272H; first compound 0.8 µM) was 0.399. For the same compound, the relative viability (EPLC-272H; first compound 2.53 µM) was 0.306, the relative viability (EPLC-272H; first compound 8 µM) was 0.347 and the relative viability (NCI-H23; first compound 0.08 µM) was 0.721. The relative viability (NCI-H23; first compound 0.253 µM) was 0.716, the relative viability (NCI-H23; first compound 0.8 µM) was 0.783 and the relative viability (NCI-H23; first compound 2.53 µM) was 0.702. For the same compound, the relative viability (NCI-H23; first compound 8 µM) was 0.86, the relative viability (HCC-78; first compound 0.08 µM) was 0.395 and the relative viability (HCC-78; first compound 0.253 µM) was 0.553. The relative viability (HCC-78; first compound 0.8 µM) was 0.284, the relative viability (HCC-78; first compound 2.53 µM) was 0.329 and the relative viability (HCC-78; first compound 8 µM) was 0.389. It also gave a relative viability (NCI-H1915; first compound 0.08 µM) of 0.296, a relative viability (NCI-H1915; first compound 0.253 µM) of 0.351 and a relative viability (NCI-H1915; first compound 0.8 µM) of 0.309. It also gave a relative viability (NCI-H1915; first compound 2.53 µM) of 0.306, a relative viability (NCI-H1915; first compound 8 µM) of 0.337 and a relative viability (NCI-H2405; first compound 0.08 µM) of 0.183. The relative viability (NCI-H2405; first compound 0.253 µM) was 0.194, the relative viability (NCI-H2405; first compound 0.8 µM) was 0.192 and the relative viability (NCI-H2405; first compound 2.53 µM) was 0.179. The relative viability (NCI-H2405; first compound 8 µM) was 0.209, the relative viability (HCC-827; first compound 0.08 µM) was 0.285 and the relative viability (HCC-827; first compound 0.253 µM) was 0.297. It also gave a relative viability (HCC-827; first compound 0.8 µM) of 0.37, a relative viability (HCC-827; first compound 2.53 µM) of 0.276 and a relative viability (HCC-827; first compound 8 µM) of 0.348. The relative viability (201T; first compound 0.08 µM) was 0.637, the relative viability (201T; first compound 0.253 µM) was 0.599 and the relative viability (201T; first compound 0.8 µM) was 0.355. The relative viability (201T; first compound 2.53 µM) was 0.521, the relative viability (201T; first compound 8 µM) was 0.654 and the relative viability (COR-L 105; first compound 0.08 µM) was 0.311. For the same compound, the relative viability (COR-L 105; first compound 0.253 µM) was 0.311, the relative viability (COR-L 105; first compound 0.8 µM) was 0.326 and the relative viability (COR-L 105; first compound 2.53 µM) was 0.356. The relative viability (COR-L 105; first compound 8 µM) was 0.31, the relative viability (NCI-H1666; first compound 0.08 µM) was 0.787 and the relative viability (NCI-H1666; first compound 0.253 µM) was 0.781. The relative viability (NCI-H1666; first compound 0.8 µM) was 0.851, the relative viability (NCI-H1666; first compound 2.53 µM) was 0.768 and the relative viability (NCI-H1666; first compound 8 µM) was 0.789. It also gave a relative viability (PC-14; first compound 0.08 µM) of 0.225, a relative viability (PC-14; first compound 0.253 µM) of 0.217 and a relative viability (PC-14; first compound 0.8 µM) of 0.225. The relative viability (PC-14; first compound 2.53 µM) was 0.175, the relative viability (PC-14; first compound 8 µM) was 0.253 and the relative viability (NCI-H647; first compound 0.08 µM) was 0.128. It also gave a relative viability (NCI-H647; first compound 0.253 µM) of 0.205, a relative viability (NCI-H647; first compound 0.8 µM) of 0.208 and a relative viability (NCI-H647; first compound 2.53 µM) of 0.123. It also gave a relative viability (NCI-H647; first compound 8 µM) of 0.155, a relative viability (ChaGo-K-1; first compound 0.08 µM) of 0.499 and a relative viability (ChaGo-K-1; first compound 0.253 µM) of 0.568. It also gave a relative viability (ChaGo-K-1; first compound 0.8 µM) of 0.585, a relative viability (ChaGo-K-1; first compound 2.53 µM) of 0.454 and a relative viability (ChaGo-K-1; first compound 8 µM) of 0.674. It also gave a relative viability (NCI-H2347; first compound 0.08 µM) of 0.298, a relative viability (NCI-H2347; first compound 0.253 µM) of 0.286 and a relative viability (NCI-H2347; first compound 0.8 µM) of 0.296. The relative viability (NCI-H2347; first compound 2.53 µM) was 0.304, the relative viability (NCI-H2347; first compound 8 µM) was 0.298 and the relative viability (LCLC-97TM1; first compound 0.08 µM) was 0.899. For the same compound, the relative viability (LCLC-97TM1; first compound 0.253 µM) was 0.863, the relative viability (LCLC-97TM1; first compound 0.8 µM) was 0.956 and the relative viability (LCLC-97TM1; first compound 2.53 µM) was 0.749. For the same compound, the relative viability (LCLC-97TM1; first compound 8 µM) was 0.757.
